Data reported in patent US20250154686A1, “COMPOUND LIBRARY” (CHUGAI SEIYAKU KABUSHIKI KAISHA, priority 2021, published 2025).

Target: T1, Bcl-2 protein (Recombinant Human Bcl-2 Protein) (Homo sapiens, UniProt P10415)
T1 construct: purchased Novus Biologicals NBP2-34889
Assay: AS-MS evaluation of binding of the Example 4 mixture library (1200 compounds/well) to Bcl-2, ASMS ratio (%)
Settings: mixture library, value belongs to the MS peak assigned to the compound; for ASMS ratio (%) n = 1: replicate n = 1; for ASMS ratio (%) n = 2: replicate n = 2
Procedure, shortened: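 ASMS ratio (%) derived from reverse-phase LC/MS of three samples: Bcl-2 (20 μM) incubation after SEC, protein-free standard without SEC, and protein-free blank after SEC. Compounds were pooled at 1200/well, 20 nM each, incubated 1 h, 23 °C, dark, in Tris-HCl pH 7.4 buffer with Tween-20 and DTT.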

T1 sequence (P10415 whole entry): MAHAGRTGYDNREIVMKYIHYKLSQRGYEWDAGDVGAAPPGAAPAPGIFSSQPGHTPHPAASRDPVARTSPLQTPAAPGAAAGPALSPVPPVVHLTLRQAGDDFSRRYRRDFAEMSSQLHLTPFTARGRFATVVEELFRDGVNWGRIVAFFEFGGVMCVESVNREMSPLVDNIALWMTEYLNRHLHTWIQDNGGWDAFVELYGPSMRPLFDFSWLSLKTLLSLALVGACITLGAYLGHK

CCOc1cccc(-c2cc(CN3CCN(c4ccc(C(=O)NS(C)(=O)=O)cc4)CC3)cc(OC(C)C)c2)c1 [Compound B2I057-01, 4-[4-[[3-(3-Ethoxyphenyl)-5-propan-2-yloxyphenyl]methyl]piperazin-1-yl]-N-methylsulfonylbenzamide]
ASMS ratio (%) n = 1: 0.0%
ASMS ratio (%) n = 2: 0.0%

CCOc1cncc(-c2cc(CN3CCN(c4ccc(C(=O)NS(C)(=O)=O)cc4)CC3)cc(OC(C)C)c2)c1 [Compound B2I058-01, 4-[4-[[3-(5-Ethoxypyridin-3-yl)-5-propan-2-yloxyphenyl]methyl]piperazin-1-yl]-N-methylsulfonylbenzamide]
ASMS ratio (%) n = 1: 0.0%
ASMS ratio (%) n = 2: 0.0%

CCOc1cccc(-c2cc(OC)c(CN3CCN(c4ccc(C(=O)NS(C)(=O)=O)cc4)CC3)c(OC)c2)c1 [Compound B2I059-01, 4-[4-[[4-(3-Ethoxyphenyl)-2,6-dimethoxyphenyl]methyl]piperazin-1-yl]-N-methylsulfonylbenzamide]
ASMS ratio (%) n = 1: 0.0%
ASMS ratio (%) n = 2: 0.0%

CCOc1cncc(-c2cc(OC)c(CN3CCN(c4ccc(C(=O)NS(C)(=O)=O)cc4)CC3)c(OC)c2)c1 [Compound B2I060-01, 4-[4-[[4-(5-Ethoxypyridin-3-yl)-2,6-dimethoxyphenyl]methyl]piperazin-1-yl]-N-methylsulfonylbenzamide]
ASMS ratio (%) n = 1: 0.0%
ASMS ratio (%) n = 2: 0.0%

CCOc1cccc(-c2cc(CN3CCN(c4ccc(C(=O)NS(C)(=O)=O)cc4)CC3)cc(C(F)(F)F)c2)c1 [Compound B2I061-01, 4-[4-[[3-(3-Ethoxyphenyl)-5-(trifluoromethyl)phenyl]methyl]piperazin-1-yl]-N-methylsulfonylbenzamide]
ASMS ratio (%) n = 1: −0.8%
ASMS ratio (%) n = 2: 0.5%

CCOc1cncc(-c2cc(CN3CCN(c4ccc(C(=O)NS(C)(=O)=O)cc4)CC3)cc(C(F)(F)F)c2)c1 [Compound B2I062-01, 4-[4-[[3-(5-Ethoxypyridin-3-yl)-5-(trifluoromethyl)phenyl]methyl]piperazin-1-yl]-N-methylsulfonylbenzamide]
ASMS ratio (%) n = 1: 0.0%
ASMS ratio (%) n = 2: 0.0%

CCOc1cccc(-c2cc(CN3CCN(c4ccc(C(=O)NS(C)(=O)=O)cc4)CC3)cc(OC(F)(F)F)c2)c1 [Compound B2I063-01, 4-[4-[[3-(3-Ethoxyphenyl)-5-(trifluoromethoxy)phenyl]methyl]piperazin-1-yl]-N-methylsulfonylbenzamide]
ASMS ratio (%) n = 1: 0.9%
ASMS ratio (%) n = 2: 0.0%

CCOc1cncc(-c2cc(CN3CCN(c4ccc(C(=O)NS(C)(=O)=O)cc4)CC3)cc(OC(F)(F)F)c2)c1 [Compound B2I064-01, 4-[4-[[3-(5-Ethoxypyridin-3-yl)-5-(trifluoromethoxy)phenyl]methyl]piperazin-1-yl]-N-methylsulfonylbenzamide]
ASMS ratio (%) n = 1: 0.0%
ASMS ratio (%) n = 2: 0.0%

CCOc1cccc(-c2ccc(CN3CCN(c4ccc(C(=O)NS(C)(=O)=O)cc4)CC3)c3ccccc23)c1 [Compound B2I065-01, 4-[4-[[4-(3-Ethoxyphenyl)naphthalen-1-yl]methyl]piperazin-1-yl]-N-methylsulfonylbenzamide]
ASMS ratio (%) n = 1: 0.0%
ASMS ratio (%) n = 2: 0.0%

CCOc1cncc(-c2ccc(CN3CCN(c4ccc(C(=O)NS(C)(=O)=O)cc4)CC3)c3ccccc23)c1 [Compound B2I066-01, 4-[4-[[4-(5-Ethoxypyridin-3-yl)naphthalen-1-yl]methyl]piperazin-1-yl]-N-methylsulfonylbenzamide]
ASMS ratio (%) n = 1: 0.0%
ASMS ratio (%) n = 2: 0.0%

CCOc1cccc(-c2csc(CN3CCN(c4ccc(C(=O)NS(C)(=O)=O)cc4)CC3)c2)c1 [Compound B2I067-01, 4-[4-[[4-(3-Ethoxyphenyl)thiophen-2-yl]methyl]piperazin-1-yl]-N-methylsulfonylbenzamide]
ASMS ratio (%) n = 1: 0.0%
ASMS ratio (%) n = 2: 0.0%

CCOc1cncc(-c2csc(CN3CCN(c4ccc(C(=O)NS(C)(=O)=O)cc4)CC3)c2)c1 [Compound B2I068-01, 4-[4-[[4-(5-Ethoxypyridin-3-yl)thiophen-2-yl]methyl]piperazin-1-yl]-N-methylsulfonylbenzamide]
ASMS ratio (%) n = 1: 0.0%
ASMS ratio (%) n = 2: 0.0%

CCOc1cccc(C#Cc2ccccc2CN2CCN(c3ccc(C(=O)NS(C)(=O)=O)cc3)CC2)c1 [Compound B2I069-01, 4-[4-[[2-[2-(3-Ethoxyphenyl)ethynyl]phenyl]methyl]piperazin-1-yl]-N-methylsulfonylbenzamide]
ASMS ratio (%) n = 1: 0.0%
ASMS ratio (%) n = 2: −2.2%

CCOc1cncc(C#Cc2ccccc2CN2CCN(c3ccc(C(=O)NS(C)(=O)=O)cc3)CC2)c1 [Compound B2I070-01, 4-[4-[[2-[2-(5-Ethoxypyridin-3-yl)ethynyl]phenyl]methyl]piperazin-1-yl]-N-methylsulfonylbenzamide]
ASMS ratio (%) n = 2: 0.0%

CCOc1cccc(-c2ccccc2CN2CCN(c3ccc(C(=O)NS(C)(=O)=O)nn3)CC2)c1 [Compound B2I071-01, 6-[4-[[2-(3-Ethoxyphenyl)phenyl]methyl]piperazin-1-yl]-N-methylsulfonylpyridazine-3-carboxamide]
ASMS ratio (%) n = 1: −1.2%
ASMS ratio (%) n = 2: −1.9%

CCOc1cncc(-c2ccccc2CN2CCN(c3ccc(C(=O)NS(C)(=O)=O)nn3)CC2)c1 [Compound B2I072-01, 6-[4-[[2-(5-Ethoxypyridin-3-yl)phenyl]methyl]piperazin-1-yl]-N-methylsulfonylpyridazine-3-carboxamide]
ASMS ratio (%) n = 1: 0.8%
ASMS ratio (%) n = 2: 1.3%

CCOc1cccc(-c2ccc(CN3CCN(c4ccc(C(=O)NS(C)(=O)=O)nn4)CC3)cc2C)c1 [Compound B2I073-01, 6-[4-[[4-(3-Ethoxyphenyl)-3-methylphenyl]methyl]piperazin-1-yl]-N-methylsulfonylpyridazine-3-carboxamide]
ASMS ratio (%) n = 1: 0.0%
ASMS ratio (%) n = 2: 0.0%

CCOc1cncc(-c2ccc(CN3CCN(c4ccc(C(=O)NS(C)(=O)=O)nn4)CC3)cc2C)c1 [Compound B2I074-01, 6-[4-[[4-(5-Ethoxypyridin-3-yl)-3-methylphenyl]methyl]piperazin-1-yl]-N-methylsulfonylpyridazine-3-carboxamide]
ASMS ratio (%) n = 1: 0.0%
ASMS ratio (%) n = 2: −8.4%

CCOc1cccc(-c2ccc(CN3CCN(c4ccc(C(=O)NS(C)(=O)=O)nn4)CC3)c(CC)c2)c1 [Compound B2I075-01, 6-[4-[[4-(3-Ethoxyphenyl)-2-ethylphenyl]methyl]piperazin-1-yl]-N-methylsulfonylpyridazine-3-carboxamide]
ASMS ratio (%) n = 1: 0.0%
ASMS ratio (%) n = 2: 0.0%
